Target: T1, PlaR (YiaJ) (Escherichia coli, UniProt P37671)
T1 sequence (P37671 1-282): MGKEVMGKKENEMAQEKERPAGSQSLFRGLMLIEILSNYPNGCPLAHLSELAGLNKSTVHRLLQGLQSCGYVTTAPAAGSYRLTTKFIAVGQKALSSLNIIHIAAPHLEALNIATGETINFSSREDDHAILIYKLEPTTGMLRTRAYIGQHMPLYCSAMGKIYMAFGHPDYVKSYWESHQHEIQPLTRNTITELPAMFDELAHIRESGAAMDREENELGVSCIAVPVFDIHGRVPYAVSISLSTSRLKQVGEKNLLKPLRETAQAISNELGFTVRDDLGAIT
Experiment: gel shift assay, dissociation of PlaR from yiaK promoter DNA
Type: binding
Conditions: 2.5 uM PlaR, yiaK promoter probe, 1-25 mM compound, 37 °C, pH 7.8, 150 mM NaCl, 3 mM Mg acetate; effector (inducer)

Compound	gel shift assay, dissociation of PlaR from yiaK promoter DNA
O=C(O)[C@H]1O[C@H](O)[C@H](O)[C@@H](O)[C@H]1O [α-D-galacturonate]	Both the metabolites induced a dose-dependent dissociation in vitro of PlaR from the PlaR-yiaK promoter
O=C1O[C@H]([C@@H](O)CO)C(O)=C1O [L-ascorbate]	Both the metabolites induced a dose-dependent dissociation in vitro of PlaR from the PlaR-yiaK promoter
